Source: patent US10238671B2, “Hydrosoluble hydroxybisphosphonic derivatives of doxorubicin” (Atlanthera, priority 2014, dated 2019)
≈ marks a conversion by molar mass, not a printed value.

How the values were obtained:
[1] = Solubility of compounds (II), (III) and (IV) compared with products (a) and (b); conditions: for solubility: aqueous buffer
[2] = tested on: human tumor line HOS (human osteosarcoma, ATCC); experiment: Orthotopic xenogeneic murine model of osteolytic osteosarcoma (paratibial injection of HOS): tumor volume and radiographic evaluation; assay type: in vivo, immunosuppressed mice; conditions: for Size of extraosseous tumors in relation to control group and vector 5 and/or doxorubicin groups: 25 μmol/kg 2x/wk intraperitoneally, HOS tumor in mice; for Fractures of the tibial metaphysis: Day 27, radiography, 90% of control animals have fractures; for Bone lesions (metaphyseal fractures, alteration of cortical integrity, new formation of ectopic bone): radiographic evaluation, compared with control and other groups
Procedure: The antitumor activity of compounds (II) and (III) according to the invention was evaluated in an orthotopic, xenogeneic murine model of osteolytic osteosarcoma induced by paratibial injection of the human tumor line HOS (human osteosarcoma, ATCC) in immunosuppressed mice. The activity of the molecules according to the invention was compared with that of the two main subunits comprising them (doxorubicin and vector 5) alone or in combination. The treatments, on 10 animals per group, began the day following tumor induction and were administered intraperitoneally 1 to 2 times per week for 5 weeks. Tumor volumes were measured twice per week using a slide caliper and radiographic evaluation was carried out once per week. Tumor volume, expressed in mm^3, is calculated according to the following formula: V=(L×l^2)/2 (L and l, expressed in mm, correspond to the large length and the small length of the tumor, respectively).
The following treatment groups were thus studied, each on 10 mice: […]

[3] = Toxicity in mice (weight loss, cardiotoxicity, maximum usable dose); conditions: for Dose giving similar weight loss, relative to doxorubicin alone (maximum usable dose study): mice, intravenously or intraperitoneally
[4] = 2 mg/ml solution of TRIS in water

SMILES	Solubility in 2 mg/ml solution of TRIS in water [1, 4]	Solubility in DPBS or water ([1]; DPBS or water)	solubility ([1]; DPBS or water) [mM]	Size of extraosseous tumors in relation to control group and vector 5 and/or doxorubicin groups [2]	Fractures of the tibial metaphysis [2]	Bone lesions (metaphyseal fractures, alteration of cortical integrity, new formation of ectopic bone) [2]	Dose giving similar weight loss, relative to doxorubicin alone (maximum usable dose study) [3] [times higher]	also measured
COc1cccc2c1C(=O)c1c(O)c3c(c(O)c1C2=O)C[C@@](O)(/C(CO)=N/NC(=S)N/N=C/c1cccc(OCCCN(C)CCC(O)(P(=O)(O)O)P(=O)(O)O)c1)C[C@@H]3O[C@H]1C[C@H](N)[C@H](O)[C@H](C)O1 [(a)]	insoluble	insoluble						Solubility in organic solvents ([1]; ethanol or dimethylsulfoxide or mixtures thereof with water): insoluble; Solubility in water with organic or inorganic additives ([1]; water with organic additives (Tween, PEG, glycerin, glucose, TRIS) or inorganic additives (sodium carbonate or bicarbonate)): insoluble
COc1cccc2c1C(=O)c1c(O)c3c(c(O)c1C2=O)C[C@@](O)(/C(CO)=N/NC(=S)N/N=C/c1cccc(OCCCN(C)CCC(O)(P(=O)(O)O)P(=O)(O)O)c1)C[C@@H]3O[C@H]1C[C@H](NC(=O)CCC(=O)O)[C@H](O)[C@H](C)O1 [(b)]	poorly soluble	insoluble						solubility [1, 4]: ~1 mM (≈ 1.13 mg/mL)
COc1cccc2c1C(=O)c1c(O)c3c(c(O)c1C2=O)C[C@@](O)(/C(CO)=N/NC(=S)NNC(=O)CN(CCN(CC(=O)O)CC(=O)NNC(=S)N/N=C/c1cccc(OCCCN(C)CCC(O)(P(=O)(O)O)P(=O)(O)O)c1)CC(=O)O)C[C@@H]3O[C@H]1C[C@H](N)[C@H](O)[C@H](C)O1 [Compound (II)]			~255 (≈ 354 mg/mL)	significantly reduce	not detected in any of the mice	reduce	13	Animals with a tumor greater than 1500 mm^3 in volume ([2]; Day 32, 10 mice per group): only one mouse; Signs of toxicity (very early weight loss, cardiotoxicity) ([3]; 20 μmol/kg (molar equivalent dose to doxorubicin 12 mg/kg)): do not induce these signs of toxicity
COc1cccc2c1C(=O)c1c(O)c3c(c(O)c1C2=O)C[C@@](O)(/C(CO)=N/NC(=S)NNCc1cccc(OCCCN(C)CCC(O)(P(=O)(O)O)P(=O)(O)O)c1)C[C@@H]3O[C@H]1C[C@H](N)[C@H](O)[C@H](C)O1 [Compound (III)]			~160 (≈ 164 mg/mL)	significantly reduce	not detected in any of the mice	reduce	13	
COc1cccc2c1C(=O)c1c(O)c3c(c(O)c1C2=O)C[C@@](O)(/C(CO)=N/OCC(O)(P(=O)(O)O)P(=O)(O)O)C[C@@H]3O[C@H]1C[C@H](N)[C@H](O)[C@H](C)O1 [Compound (IV)]			~315 (≈ 240 mg/mL)				13	
COc1cccc2c1C(=O)c1c(O)c3c(c(O)c1C2=O)C[C@@](O)(C(=O)CO)C[C@@H]3O[C@H]1C[C@H](N)[C@H](O)[C@H](C)O1 [doxorubicin]						equivalent to those of the control group		Outcome after Day 27 (tumor volume) ([2]; after Day 27): had to be euthanized because of excessively large tumor volumes; Weight loss ([3]; dose 12 mg/kg (20 μmol/kg), requiring euthanasia after 2 weeks of treatment): > 10%
